Experimental data taken from patent publication US6706517B2, “Method for producing L-amino acids by fermentation” (priority 1999, dated 2004).
Where a name gives a salt, the structure may show the parent alone.

Legend:
Assay type in all cases: cell-based
Settings in all cases: 33° C., 4 days
[1] = tested on: Escherichia coli H-9343; assay: Comparative test of growth on agar plate medium containing primaquine or novobiocin, mutant strain H-9343
Protocol: Furthermore, the obtained colony was subjected to a mutation treatment with NTG (0.2 mg/ml, 30° C., 30 minutes), followed by spreading on an agar plate culture medium containing 150 mg/liter primaquine disodium salt. Culturing was carried out thereon at 30° C. for 2 to 6 days, and growing large colonies were picked up and separated to obtain the strain H-9343. The strains H-9340, H-9342 and H-9343 were deposited on March 9, 1999 with the National Institute of Bioscience and Human-Technology, Agency of Industrial Science and Technology (1-3, Higashi 1-chome, Tsukuba-shi, Ibaraki-ken, Japan) under the Budapest Treaty with accession Nos. FERM BP-6673, FERM BP-6675 and FERM BP-6676, respectively.
(§1) Comparative test of growth on agar plate culture medium containing primaquine or novobiocin
(§2) The growth of the mutant strains H-9342 and H-9343 obtained in Example 1 was compared with the growth of the parent strain H-9340 on an agar plate medium containing primaquine or novobiocin.
(§3) Each of the mutant strains, which had been cultured in a natural medium for 24 hours and suspended in physiological saline, was spread at a cell density of 1 to 10 cells/cm^2 on the agar plate medium containing primaquine disodium salt or novobiocin monosodium salt at the same concentration as that at the time of acquisition of each mutant strain, and cultured at 33° C. for 4 days.

[2] = tested on: Escherichia coli H-9340; assay: Comparative test of growth on agar plate medium containing primaquine or novobiocin, parent strain H-9340
Protocol: (§4) Preparation of an L-histidine-producing mutant strain having resistance to a DNA gyrase inhibitor or an L-histidine-producing mutant strain having both resistance to a DNA gyrase inhibitor and resistance to an aminoquinoline derivative The L-histidine-producing mutant strain H-9340 having resistance to 1,2,4-triazole alanine, which was derived from methionine-requiring Escherichia coli ATCC 21318 was subjected to a mutation treatment with N-methyl-N′-nitro-N-nitrosoguanidine (NTG) (0.2 mg/ml, 30° C., 30 minutes) according to a conventional method and spread on a 1 g/liter noboviocin monosodium salt-containing agar plate medium [0.2% glucose, 0.3% potassium dihydrogen phosphate, 0.6% disodium hydrogen phosphate, 0.01% magnesium sulfate, 0.05% sodium chloride, 0.1% ammonium chloride, 50 mg/liter required nutrient (DL-methionine) and 1.5% agar, pH 7.2].
as §1
The growth of the mutant strains H-9342 and H-9343 obtained in Example 1 was compared with the growth of the parent strain H-9340 on an agar plate medium containing primaquine or novobiocin. […]

[3] = tested on: Escherichia coli H-9342; assay: Comparative test of growth on agar plate medium containing primaquine or novobiocin, mutant strain H-9342
Protocol: as §4
The mutant strain was cultured on the agar plate medium at 30° C. for 2 to 6 days, and the growing large colonies were picked up and separated to obtain the strain H-9342.
as §1, §2, §3

[4] = 150 mg/liter primaquine disodium salt in agar medium
[5] = 1 g/liter novobiocin monosodium salt in agar medium

Row | Structure (SMILES) | Growth or non-growth on agar plate medium [1, 4] | Growth or non-growth on agar plate medium [2, 4] | Growth or non-growth on agar plate medium [3, 4] | Growth on the primaquine-containing culture medium (in words) ([3]; primaquine-containing agar medium) | Growth or non-growth on agar plate medium [1, 5] | Growth or non-growth on agar plate medium [2, 5] | Growth or non-growth on agar plate medium [3, 5]
1 | COc1cc(NC(C)CCCN)c2ncccc2c1 (stereo not shown) [Primaquine disodium salt, primaquine disodium salt] | + | − | − | did not grow |  |  | 
2 | CO[C@@H]1[C@@H](OC(N)=O)[C@@H](O)[C@H](Oc2ccc3c(O)c(NC(=O)c4ccc(O)c(CC=C(C)C)c4)c(=O)oc3c2C)OC1(C)C [Novobiocin monosodium salt, novobiocin monosodium salt] |  |  |  |  | + | − | +
